Structures are written as SMILES.

Assay [1] concerns the target Carbonic anhydrase 9 (Homo sapiens, UniProt Q16790).
Description: Inhibition of human recombinant carbonic anhydrase 9 assessed as inhibition constant incubated for 15 mins by stopped-flow technique
In assay [2] the target is Carbonic anhydrase 12 (Homo sapiens, UniProt O43570).
Description: Inhibition of human recombinant carbonic anhydrase 12 assessed as inhibition constant incubated for 15 mins by stopped-flow technique
Assay [3] concerns the target Carbonic anhydrase 2 (Homo sapiens, UniProt P00918).
Description: Inhibition of human recombinant carbonic anhydrase 2 assessed as inhibition constant incubated for 15 mins by stopped-flow technique
Assay [4] has as its target Carbonic anhydrase 1 (Homo sapiens, UniProt P00915).
Description: Inhibition of human recombinant carbonic anhydrase I assessed as inhibition constant incubated for 15 mins by stopped-flow technique

Chain of Carbonic anhydrase 12 (O43570 whole entry): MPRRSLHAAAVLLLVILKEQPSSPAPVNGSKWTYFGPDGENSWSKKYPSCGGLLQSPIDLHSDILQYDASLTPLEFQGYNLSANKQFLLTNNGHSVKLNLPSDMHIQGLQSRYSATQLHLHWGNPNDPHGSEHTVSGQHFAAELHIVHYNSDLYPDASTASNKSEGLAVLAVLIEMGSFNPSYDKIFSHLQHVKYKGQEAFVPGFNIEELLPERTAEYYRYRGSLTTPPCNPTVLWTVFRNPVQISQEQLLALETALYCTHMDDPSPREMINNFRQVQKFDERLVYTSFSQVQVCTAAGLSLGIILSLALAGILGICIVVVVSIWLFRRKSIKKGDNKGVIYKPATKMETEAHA
Chain of Carbonic anhydrase 1 (P00915 whole entry): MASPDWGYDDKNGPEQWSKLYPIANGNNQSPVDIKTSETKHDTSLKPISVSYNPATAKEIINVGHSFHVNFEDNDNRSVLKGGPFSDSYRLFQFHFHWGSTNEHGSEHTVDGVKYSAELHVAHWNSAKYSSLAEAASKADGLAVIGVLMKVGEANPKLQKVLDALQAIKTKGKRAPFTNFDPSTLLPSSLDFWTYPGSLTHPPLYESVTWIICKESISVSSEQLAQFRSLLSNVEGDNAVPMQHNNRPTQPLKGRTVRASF

As to `O=C(O)Cc1nnn[nH]1`, the Ki – broadly, the equilibrium dissociation constant of an inhibitor or competing ligand from its target – in assay [1] is 7.68 µM; in assay [2], 8.21 µM; in assay [3], 5.97 µM; in assay [4] it was 4.21 µM.

These data come from ChEMBL document CHEMBL6096713, “Tetrazole Is a Novel Zinc Binder Chemotype for Carbonic Anhydrase Inhibition” (ACS Med Chem Lett, 2025).
